# Test system: Haematococcus pluvialis (Strain 2)
# Experiment: % cell lysis, culture dry weight and % carotenoid by UV method in 230 L reactors, salt treatment (Example 12)
# Type: cell-based
# Protocol: This test was done side by side in flasks (0.1 L) and in reactors located in a greenhouse operating in conditions: reactor volume of 230 L; Daily PAR of 20 mol m^−2 d^−1; pH (not measured); and paddlewheel speed of 21 RPM. […] The flask cultures were mixed by shaking at 140 rpm and received 300-400 μmol/m^2 s of photosynthetically active radiation (PAR) in 12 hour light cycles and constant supply of 2.5% CO2. The motility of the culture was monitored by visual observation under a microscope. […] Nine 230 L reactors were also seeded with culture from bioreactor #2410 on the same day as the flasks and brought to 2 ppt concentration of salt. Once motility of the cells was reduced to <10% (day 3 of culture for flasks and day 2 for 230 L reactors) the level of salt was elevated to a point between 4-18 ppt and compared to the culture in two reactors remaining at 2 ppt salt. Flasks and 230 L reactors were monitored for percentage of cell lysis via visual observation under a microscope, culture dry weight (biomass accumulation in g/L), and percentage of chytrid infection via visual observation under a microscope. Carotenoid production, a proxy for determining astaxanthin, was quantified every other day of culture in the 230 L reactors using the UV method.
smiles,measurement,setting,value
"[Cl-].[Na+] [NaCl, sodium chloride]",Culture Dry Weight in 230L reactors,"NaCl 2 ppt (1st 2 ppt column), time 12 d",0.187 g/L
same,Culture Dry Weight in 230L reactors,"NaCl 2 ppt, time 0 d",0.043 g/L
same,Culture Dry Weight in 230L reactors,"NaCl 2 ppt, time 1 d",0.048 g/L
same,Culture Dry Weight in 230L reactors,"NaCl 2 ppt, time 2 d",0.072 g/L
same,Culture Dry Weight in 230L reactors,"NaCl 2 ppt, time 4 d",0.113 g/L
same,Culture Dry Weight in 230L reactors,"NaCl 2 ppt, time 5 d",0.125 g/L
same,Culture Dry Weight in 230L reactors,"NaCl 2 ppt, time 6 d",0.130 g/L
same,Culture Dry Weight in 230L reactors,"NaCl 2 ppt, time 7 d",0.150 g/L
same,Culture Dry Weight in 230L reactors,"NaCl 2 ppt, time 8 d",0.170 g/L
same,Culture Dry Weight in 230L reactors,"NaCl 2 ppt, time 9 d",0.218 g/L
same,Culture Dry Weight in 230L reactors,"NaCl 2 ppt, time 10 d",0.150 g/L
same,Culture Dry Weight in 230L reactors,"NaCl 4 ppt, time 0 d",0.037 g/L
same,Culture Dry Weight in 230L reactors,"NaCl 4 ppt, time 1 d",0.063 g/L
same,Culture Dry Weight in 230L reactors,"NaCl 4 ppt, time 2 d",0.080 g/L
same,Culture Dry Weight in 230L reactors,"NaCl 4 ppt, time 4 d",0.115 g/L
same,Culture Dry Weight in 230L reactors,"NaCl 4 ppt, time 5 d",0.120 g/L
same,Culture Dry Weight in 230L reactors,"NaCl 4 ppt, time 6 d",0.125 g/L
same,Culture Dry Weight in 230L reactors,"NaCl 4 ppt, time 7 d",0.148 g/L
same,Culture Dry Weight in 230L reactors,"NaCl 4 ppt, time 8 d",0.153 g/L
same,Culture Dry Weight in 230L reactors,"NaCl 4 ppt, time 9 d",0.198 g/L
same,Culture Dry Weight in 230L reactors,"NaCl 4 ppt, time 10 d",0.143 g/L
same,Culture Dry Weight in 230L reactors,"NaCl 4 ppt, time 11 d",0.148 g/L
same,Culture Dry Weight in 230L reactors,"NaCl 4 ppt, time 12 d",0.150 g/L
same,Culture Dry Weight in 230L reactors,"NaCl 5 ppt, time 0 d",0.040 g/L
same,Culture Dry Weight in 230L reactors,"NaCl 5 ppt, time 1 d",0.070 g/L
same,Culture Dry Weight in 230L reactors,"NaCl 5 ppt, time 4 d",0.162 g/L
same,Culture Dry Weight in 230L reactors,"NaCl 5 ppt, time 5 d",0.185 g/L
same,Culture Dry Weight in 230L reactors,"NaCl 5 ppt, time 6 d",0.213 g/L
same,Culture Dry Weight in 230L reactors,"NaCl 5 ppt, time 7 d",0.223 g/L
same,Culture Dry Weight in 230L reactors,"NaCl 5 ppt, time 8 d",0.270 g/L
same,Culture Dry Weight in 230L reactors,"NaCl 5 ppt, time 9 d",0.293 g/L
same,Culture Dry Weight in 230L reactors,"NaCl 5 ppt, time 10 d",0.265 g/L
same,Culture Dry Weight in 230L reactors,"NaCl 5 ppt, time 11 d",0.250 g/L
same,Culture Dry Weight in 230L reactors,"NaCl 5 ppt, time 12 d",0.280 g/L
same,Culture Dry Weight in 230L reactors,"NaCl 6 ppt, time 0 d",0.040 g/L
same,Culture Dry Weight in 230L reactors,"NaCl 6 ppt, time 1 d",0.058 g/L
same,Culture Dry Weight in 230L reactors,"NaCl 6 ppt, time 4 d",0.140 g/L
same,Culture Dry Weight in 230L reactors,"NaCl 6 ppt, time 5 d",0.178 g/L
same,Culture Dry Weight in 230L reactors,"NaCl 6 ppt, time 6 d",0.198 g/L
same,Culture Dry Weight in 230L reactors,"NaCl 6 ppt, time 7 d",0.218 g/L
same,Culture Dry Weight in 230L reactors,"NaCl 6 ppt, time 8 d",0.260 g/L
same,Culture Dry Weight in 230L reactors,"NaCl 6 ppt, time 9 d",0.260 g/L
same,Culture Dry Weight in 230L reactors,"NaCl 6 ppt, time 10 d",0.250 g/L
same,Culture Dry Weight in 230L reactors,"NaCl 6 ppt, time 11 d",0.282 g/L
same,Culture Dry Weight in 230L reactors,"NaCl 6 ppt, time 12 d",0.323 g/L
same,Culture Dry Weight in 230L reactors,"NaCl 7 ppt, time 0 d",0.035 g/L
same,Culture Dry Weight in 230L reactors,"NaCl 7 ppt, time 1 d",0.048 g/L
same,Culture Dry Weight in 230L reactors,"NaCl 7 ppt, time 4 d",0.145 g/L
same,Culture Dry Weight in 230L reactors,"NaCl 7 ppt, time 5 d",0.150 g/L
same,Culture Dry Weight in 230L reactors,"NaCl 7 ppt, time 6 d",0.170 g/L
same,Culture Dry Weight in 230L reactors,"NaCl 7 ppt, time 7 d",0.198 g/L
same,Culture Dry Weight in 230L reactors,"NaCl 7 ppt, time 8 d",0.260 g/L
same,Culture Dry Weight in 230L reactors,"NaCl 7 ppt, time 9 d",0.148 g/L
same,Culture Dry Weight in 230L reactors,"NaCl 7 ppt, time 10 d",0.205 g/L
same,Culture Dry Weight in 230L reactors,"NaCl 7 ppt, time 11 d",0.218 g/L
same,Culture Dry Weight in 230L reactors,"NaCl 7 ppt, time 12 d",0.245 g/L
same,Culture Dry Weight in 230L reactors,"NaCl 8 ppt, time 0 d",0.018 g/L
same,Culture Dry Weight in 230L reactors,"NaCl 8 ppt, time 1 d",0.057 g/L
same,Culture Dry Weight in 230L reactors,"NaCl 8 ppt, time 4 d",0.145 g/L
same,Culture Dry Weight in 230L reactors,"NaCl 8 ppt, time 5 d",0.168 g/L
same,Culture Dry Weight in 230L reactors,"NaCl 8 ppt, time 6 d",0.193 g/L
same,Culture Dry Weight in 230L reactors,"NaCl 8 ppt, time 7 d",0.205 g/L
same,Culture Dry Weight in 230L reactors,"NaCl 8 ppt, time 8 d",0.237 g/L
same,Culture Dry Weight in 230L reactors,"NaCl 8 ppt, time 9 d",0.218 g/L
same,Culture Dry Weight in 230L reactors,"NaCl 8 ppt, time 10 d",0.257 g/L
same,Culture Dry Weight in 230L reactors,"NaCl 8 ppt, time 11 d",0.220 g/L
same,Culture Dry Weight in 230L reactors,"NaCl 8 ppt, time 12 d",0.263 g/L
same,Culture Dry Weight in 230L reactors,"NaCl 10 ppt, time 0 d",0.045 g/L
same,Culture Dry Weight in 230L reactors,"NaCl 10 ppt, time 1 d",0.060 g/L
same,Culture Dry Weight in 230L reactors,"NaCl 10 ppt, time 4 d",0.120 g/L
same,Culture Dry Weight in 230L reactors,"NaCl 10 ppt, time 5 d",0.130 g/L
same,Culture Dry Weight in 230L reactors,"NaCl 10 ppt, time 6 d",0.168 g/L
same,Culture Dry Weight in 230L reactors,"NaCl 10 ppt, time 7 d",0.145 g/L
same,Culture Dry Weight in 230L reactors,"NaCl 10 ppt, time 8 d",0.145 g/L
same,Culture Dry Weight in 230L reactors,"NaCl 10 ppt, time 9 d",0.160 g/L
same,Culture Dry Weight in 230L reactors,"NaCl 10 ppt, time 10 d",0.173 g/L
same,Culture Dry Weight in 230L reactors,"NaCl 10 ppt, time 11 d",0.145 g/L
same,Culture Dry Weight in 230L reactors,"NaCl 10 ppt, time 12 d",0.168 g/L
same,Culture Dry Weight in 230L reactors,"NaCl 18 ppt, time 0 d",0.035 g/L
same,Culture Dry Weight in 230L reactors,"NaCl 18 ppt, time 1 d",0.052 g/L
same,Culture Dry Weight in 230L reactors,"NaCl 18 ppt, time 4 d",0.135 g/L
same,Culture Dry Weight in 230L reactors,"NaCl 18 ppt, time 5 d",0.173 g/L
same,Culture Dry Weight in 230L reactors,"NaCl 18 ppt, time 6 d",0.180 g/L
same,Culture Dry Weight in 230L reactors,"NaCl 18 ppt, time 7 d",0.165 g/L
same,Culture Dry Weight in 230L reactors,"NaCl 18 ppt, time 8 d",0.165 g/L
same,Culture Dry Weight in 230L reactors,"NaCl 18 ppt, time 9 d",0.175 g/L
same,Culture Dry Weight in 230L reactors,"NaCl 18 ppt, time 10 d",0.183 g/L
same,Culture Dry Weight in 230L reactors,"NaCl 18 ppt, time 11 d",0.200 g/L
same,Culture Dry Weight in 230L reactors,"NaCl 18 ppt, time 12 d",0.175 g/L

# Source: patent US20160281050A1, “METHODS FOR TREATING A CULTURE OF HAEMATOCOCCUS PLUVIALIS FOR CONTAMINATION USING SALT AND HYDROGEN PEROXIDE” (HELIAE DEVELOPMENT LLC, priority 2015, published 2016)
